In one data set the target is T1, ETA receptors (Homo sapiens, UniProt P25101).
T1 construct: host or cells: HEK293
T1 sequence (P25101 21-427): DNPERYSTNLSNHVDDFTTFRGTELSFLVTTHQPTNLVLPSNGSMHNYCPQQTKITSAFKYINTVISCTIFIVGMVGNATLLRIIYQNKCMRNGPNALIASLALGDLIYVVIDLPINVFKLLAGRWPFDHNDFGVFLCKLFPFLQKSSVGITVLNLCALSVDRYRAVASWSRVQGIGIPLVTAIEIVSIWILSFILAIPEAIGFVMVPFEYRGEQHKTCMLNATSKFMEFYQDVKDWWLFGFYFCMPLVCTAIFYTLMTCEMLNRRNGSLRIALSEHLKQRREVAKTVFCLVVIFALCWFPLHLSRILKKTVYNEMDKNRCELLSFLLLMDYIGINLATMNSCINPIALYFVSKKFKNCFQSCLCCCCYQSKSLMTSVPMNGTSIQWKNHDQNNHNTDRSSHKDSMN
Description: Effect on calcium current in cells stably expressing ETA receptors (FLIPR, antagonist mode). The data set is classed as cell-based. The conditions noted are these: HEK293-ETA cells, Fluo-8 AM, FLIPR Tetra; read-out: IC50 values of compounds on calcium current in cells stably expressing ETA receptors. From the text: Test Example 2. Determination of the Effect of the Compounds of the Present Invention on Calcium Current in Cells Stably Expressing ETA Receptors
• Antagonistic effect of test compounds on HEK293-ETA cell activity.
• DMEM, high glucose (Gibco: 12100); • Fetal bovine serum (Biosera: FB-1058/500); • P/S (Biosera: XC-A4122); • 5× Matrigel (Corning: 354230); • HBSS (Sigma: H1387); • HEPES (Invitrogen: 15630080); • Fluo-8 AM (AAT Bioquest: 21080); • Probenecid (Sigma: P8761); • Pluronic F-127 (Sigma: P2443-250G); • Endothelin 1 (MCE: HY—P0202); • Zibotentan (MCE: HY-10088); • 1000× Fluo-8 AM (2 mM): Fluo-8 AM was dissolved in DMSO, the mixture was shaken for 1-2 min, sub-packaged and stored at −20° C.; • Complete culture medium: DMEM+10% FBS+1×P/S; • Cell seeding medium: DMEM+10% FBS+1×PS; • Experimental buffer 1: 1×HBSS+20 mM HEPES+1 mM Probenecid+0.025% Pluronic F-127; • Experimental buffer 2: 1×HBSS+20 mM HEPES+0.075% Pluronic F-127; • 1× Matrigel: 5× Matrigel was diluted with DMEM; • Cell line: HDB HEK293-ETA.
• 1) HEK293-ETA cell line was cultured in complete culture medium at 37° C., 5% CO2 to 70%-90% confluence. • 2) the 384-well cell plate was coated with 1× Matrigel with 5 μL/well at room temperature for 10 to 30 min. • 3) the cells were digested and resuspended in cell seeding medium, inoculation was performed at 8,000 cells/well/20 μL in a 384-well cell culture plate, and the cells were cultured at 37° C., 5% CO2 for 24 h. • 4) the cell culture plate was taken out of the CO2 incubator and equilibrated at room temperature for 10 min. • 5) 1000× Fluo-8 AM was taken and diluted to 1× Fluo-8 AM with experimental buffer 1 that has been equilibrated to room temperature, with a concentration of 2 μM. • 6) the culture medium was removed from the cell culture plate, 20 μL of 1× Fluo-8 AM was added to each well, the mixture was centrifuged at 300 rpm for 60 seconds at room temperature, and incubated at room temperature in the dark for 1 h. • 7) positive control compound and test compound working solution (3×) were formulated: • (1) instrument Bravo was used to dilute the compound to 11 concentration points on the 384-well Echo compound plate (LABCYTE: LP-0200); • (2) instrument ECHO was used to transfer 90 nL of compound per well (compound storage concentration, such as the highest concentration point 10 mM) to the 384-well compound plate (PE: 6008590); • (3) Multidrop Combi was used to add 30 μL of experimental buffer 2 to the 384-well compound plate (PE: 6008590), the positive control compound and test compound were diluted to 30 μM (3×), and placed at room temperature until use. • 8) FLIPR Tetra was used to add 10 μL of diluted 3× compound into the experimental well of the corresponding 384-well cell plate, the compound and cells were incubated for 10 min at room temperature, then 10 μL of diluted 4× agonist was added, and the data was read and collected at the same time.
FLIPR Tetra was used to read and collect the fluorescence signal value (RFU). The maximum RFU value was used to calculate the percent activation data based on the readings of the Low control (DMSO control) and High control (100 nM positive compound) experimental groups {% activation rate=(RFUsample−RFUlow control)/(RFUhigh control−RFUlow control)×100}. The concentration of the test compound was 11 concentrations after diluting the reaction system 3 times, ranging from 10 μM to 0.17 nM.

The nature of data set [1]: Rat pharmacokinetic evaluation test, oral administration. The format is in vivo. The conditions noted are these: male, SD rats, p.o. 5 mg/kg, plasma; for MRT inf: read-out: MRT0-∞. On the procedure: SD rats were used as test animals to study the pharmacokinetic behavior of the compounds of the present invention in the rat body (plasma) after oral administration at a dose of 5 mg/kg.
3 SD rats/group, male, from Shanghai Jiesijie Experimental Animal Co., Ltd., animal production license number (SCXK (Shanghai) 2013-0006 N0.311620400001794).
• 0.5% CMC-Na (1% Tween80) was dissolved with ultrasound, and formulated into a clear solution or homogeneous suspension.
• p.o. respectively after the rats were fasted overnight; • the p.o. dose was 5 mg/kg and the administration volume was 10 mL/kg.
After oral administration of rats, 0.2 mL of blood was collected from the jugular vein at 0.25 h, 0.5 h, 1.0 h, 2.0 h, and 4.0 h, placed in an EDTA-2K test tube, centrifuged at 6000 rpm for 6 min at 4° C. to separate plasma which was stored at −80° C.; the rats can eat 4 h after administration.
• 1) 160 μL of acetonitrile was added to 40 μL of plasma sample for precipitation, mixed and centrifuged at 3500×g for 5 to 20 min. • 2) the treated supernatant solution was taken and subjected to LC/MS/MS to analyze the concentrations of the test compounds. LC/MS/MS analysis instrument: AB Sciex API 4000 Qtrap.
• Liquid phase conditions: Shimadzu LC-20AD pump • chromatographic column: AgilentZORBAX XDB-C18 (50×2.1 mm, 3.5 μm) mobile phase: liquid A was 0.1% aqueous formic acid solution, liquid B was acetonitrile • flow rate: 0.4 mL/min • Elution time: 0-4.0 min, the eluent was as follows:
The main pharmacokinetic parameters were calculated using WinNonlin 6.1.

pIC50: −log10 of the molar value.

Turning to `CCCCC1=NC2(CCCCC2)C(=O)N1Cc1ccc(-c2ccccc2S(=O)(=O)Nc2noc(C)c2Cl)c(COCC)c1` [Example 68, 4′-((2-2-4-4-oxo-1,3-diazaspiro[4.5]dec-1-en-3-yl)methyl)-N-(4-chloro-5-methylisoxazol-3-yl)-2′-(ethoxymethyl)-[1,1′-biphenyl]-2-sulfonamide], the pIC50 at ETA receptors was 7.73.
Still for that read-out and setting: as for `CCCCC1=NC2(CC3CC3C2)C(=O)N1Cc1ccc(-c2ccccc2S(=O)(=O)Nc2noc(C)c2Cl)c(COCC)c1` (stereo not shown) [Example 65, 4′-((2′-butyl-5′-oxaspiro[bicyclo[3.1.0]hexane-3,4′-imidazole]-1′(5′H)-yl)methyl)-N-(4-chloro-5-methylisoxazol-3-yl)-2′-(ethoxymethyl)-[1,1′-biphenyl]-2-sulfonamide], the figure is 8.14.
On to `CCCCC1=NC2(CCCC2)C(=O)N1Cc1ccc(-c2ccccc2S(=O)(=O)Nc2noc(C)c2Br)c(COCC)c1` [Example 46, 2-[4-[(2-butyl-4-oxo-1,3-diazaspiro[4.4]non-1-en-3-yl)methyl]-2-(ethoxymethyl)phenyl]-N-(4-bromo-5-methyl-isoxazol-3-yl)benzsulfamide], for which, in data set [1], the AUC(0-inf) is 13800 ng·h/mL, the Cmax stood at 2300 ng/mL, the Tmax was 0.5 h and the MRT inf turned out to be 6.6 h.
As for `[2H]C([2H])(OCC)c1cc(CN2C(=O)C3(CCCC3)N=C2CCCC)ccc1-c1ccccc1S(=O)(=O)Nc1noc(C)c1Cl` [Example 49, 4′-((2-butyl-4-oxo-1,3-diazospiro[4.4]non-1-en-3-yl)methyl)-N-(4-chloro-5-methylisoxazol-3-yl)-2′-(ethoxydeuteriummethyl)-[1,1′-biphenyl]-2-sulfonamide], the pIC50 on ETA receptors is 7.89.
Same read-out and setting: as for `CCCCC1=NC2(CCCC2)C(=O)N1Cc1ccc(-c2ccccc2S(=O)(=O)Nc2noc(C)c2Cl)c(COCC(F)(F)F)c1` [Example 86], the figure is 7.86.
In the case of `CCCCC1=NC2(CC3CC3C2)C(=O)N1Cc1ccc(-c2ccccc2S(=O)(=O)Nc2noc(C)c2C)c(COCC)c1` (stereo not shown) [Example 87, 4′-((2′-butyl-5′-oxaspiro[bicyclo[3.1.0]hexane-3,4′-imidazole]-1′(5′H)-yl)methyl)-N-(4,5-dimethylisoxazol-3-yl)-2′-(ethoxymethyl)-[1,1′-biphenyl]-2-sulfonamide], in data set [1], the AUC(0-inf) stood at 9760 ng·h/mL, the Cmax worked out at 2630 ng/mL, the Tmax worked out at 0.5 h and the MRT inf is 3.8 h. The pIC50 at ETA receptors is 8.09.

Source of the values: patent publication US20240368123A1, “AROMATIC RING-CONTAINING BIOLOGICAL ANTAGONIST, AND PREPARATION METHOD THEREFOR AND USE THEREOF” (SHANGHAI HANSOH BIOMEDICAL CO., LTD., priority 2021, published 2024).
